Data set [1] has as its target T1, human NK-3 receptor (Homo sapiens, UniProt P29371).
T1 construct: expressed in transfected cells; host or cells: HEK293
T1 sequence (P29371 1-465): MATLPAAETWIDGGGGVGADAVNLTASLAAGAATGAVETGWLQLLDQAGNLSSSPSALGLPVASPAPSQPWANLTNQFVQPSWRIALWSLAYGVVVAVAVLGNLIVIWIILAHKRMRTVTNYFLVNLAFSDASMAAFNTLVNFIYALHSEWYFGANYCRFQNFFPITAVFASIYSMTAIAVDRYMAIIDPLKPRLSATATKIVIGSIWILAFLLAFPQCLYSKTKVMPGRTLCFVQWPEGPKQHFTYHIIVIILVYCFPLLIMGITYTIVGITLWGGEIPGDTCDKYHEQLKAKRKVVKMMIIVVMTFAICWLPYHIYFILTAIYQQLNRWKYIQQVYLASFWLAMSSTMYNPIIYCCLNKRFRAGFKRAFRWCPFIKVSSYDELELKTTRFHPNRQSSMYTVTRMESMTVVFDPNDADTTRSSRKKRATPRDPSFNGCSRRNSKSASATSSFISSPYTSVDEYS
Description: Antagonistic activity on human NK-3 receptor in human NK-3R/HEK293 stably transfected cells (Fluo-4, FLIPR, Neurokinin B as agonist). As to conditions: human NK-3R/HEK293 cells. It counts as cell-based. As for the experimental part:
Test Example 1: Determination of Activity of Compounds of the Present Invention on Human NK-3 Receptor
This method is used to determine antagonistic effects of the compounds of the present invention on the activity of human NK-3 receptor proteins expressed in cell lines stably transfected with human NK-3R/HEK293.
2.1 The cell lines stably transfected with human NK-3R/HEK293 were inoculated in a 384-well cell culture plate at a inoculation density of 12,000 cells/well/25 μL, and cultured at 37° C. and 5% CO2 overnight;
2.2 20× Component A was frozen and thawed to room temperature, diluted 2× with Assay Buffer to working concentration, and kept at room temperature for later use;
2.3 The cell culture plate was equilibrated at room temperature for 10 min, the culture medium was removed, and 20 μL of Assay Buffer and 20 μL of 2× Component A […] were added, followed by centrifugation at 200 g at room temperature for 3-5 sec, and incubation at 37° C. for 2 h;
2.4 The compound was diluted 3 times with DMSO in 384 PP_DMSO plate, and then 240 nl/well of the compound was transferred into a working plate with Echo 550, centrifugated at 200 g at room temperature for 1 min; 40 μl of Assay Buffer was added into the working plate, centrifugated at 200 g at room temperature for 1 min, and then fully mixed in an oscillator at 2500 rpm for 20 min, and then centrifugated at 200 g at room temperature for 1 min for later use;
2.5 2.5 nM Neurokinin B TFA (6×) was prepared from Assay Buffer, 50 uL of which was transferred onto 3657 plate for later use;
2.6 The cell culture plate was taken out and left to stand at room temperature for 10 min, then […] the compound diluted in step 2.4 was added into corresponding wells, and the cell culture plate was left to stand at 25° C. for 30 min; and
2.7 10 μL of the compound diluted in step 2.5 was added into the corresponding experimental wells with FLIPR Tetra, and data was collected.
The antagonistic activity of the compounds of the present invention on the human NK-3 receptor was determined through the above experiments, to obtain inhibition curves of the compounds of the present invention and determine concentrations (IC50) of the corresponding compounds that inhibit 50% of the reference agonist.

A short description of data set [2]: Pharmacokinetic test in rats (gavage 3 mg/kg, intravenous 1 mg/kg). It counts as in vivo. To be noted: rat, plasma, SD rats; for bioavailability: gavage 3 mg/kg vs intravenous 1 mg/kg, read-out: Oral bioavailability F (%); for Cmax: read-out: Blood concentration Cmax; for AUC: read-out: Curve area AUC; for half-life: read-out: Half life T1/2 (converted). As for the experimental part: Test Example 2: Pharmacokinetic Test of Compounds of the present invention in Rats
To study in vivo pharmacokinetic behaviors of the compounds of the present invention in rats, and evaluate pharmacokinetic characteristics thereof.
An appropriate amount of sample was weighed, and ultrasonically prepared into a 0.3 mg/mL suspension for the gavage administration group; and was prepared into a 0.2 mg/mL suspension for the intravenous administration group as per a formula of 5% DMSO+10% Solutol+85% (20% SBE-β-CD).
SD rats were fasted overnight, and then administered by gavage at a dosage of 3 mg/kg and by intravenous injection at a dosage of 1 mg/kg, respectively.
0.1 mL of blood was collected before administration and at 5 min, 15 min, 30 min, 1 h, 2 h, 4 h, 8 h, and 24 h after administration, transferred into heparinized tubes, and centrifuged at 3500 rpm for 10 min to separate the plasma, which was stored at −20° C. 4 h after administration, the animals were resumed for feeding/free access to water.
Contents of the test compounds in plasma of the rats after gavage administration were determined by LC/MS/MS.

The subject of data set [3] is MDR1. Description: In vitro brain model test: MDR1-MDCKII bidirectional permeability. The data set is classed as in vitro ADME. As to conditions: dog; for Papp A→B at 2.5 h, 2 μM / Papp B→A at 2.5 h, 2 μM: MDCK-MDR1, pH 7.4, 2 μM, pH7.4; for efflux ratio at 2.5 h, 2 μM: MDCK-MDR1, pH 7.4, B to A / A to B, read-out: Efflux rate. As for the experimental part: The test product was diluted from dimethyl sulfoxide stock solution to a concentration of 2 μM (dimethyl sulfoxide <1%) with a transfer buffer (HBSS containing 10 mM Hepes, pH7.4); and was applied to apical or basolateral cavities of the cell monolayer. Penetration of the test compound from the direction A to the direction B or from the direction B to the direction A was determined in duplicate. Digoxin was detected at 10 μM in the direction of A-B, or detected in the direction of B-A, while Nadolol and Metoprolol were detected at 2 μM in the direction of A-B in duplicate. The plate was cultivated in a CO2 incubator at 37±1° C. for 2.5 h with 5% CO2 at a saturated humidity without shaking. Further, the efflux rate of each compound was also determined. According to the peak area ratio of analyte/IS, the test product and the control product were quantitatively analyzed by LC-MS/MS.
After the transfer test, the monolayer integrity of cells was determined by a lucifer yellow exclusion assay. Buffer was removed from apical and basolateral cavities, and then 75 μL of 100 μM lucifer yellow and 250 μL of transfer buffer were added into the apical and basolateral cavities, respectively. The culture dish was cultivated at 37° C., 5% CO2, and saturated humidity for 30 min without shaking. After incubation for 30 min, 20 μL of lucifer yellow sample was extracted from the top, and then 60 μL of the transfer buffer was added. Then, 80 μL of lucifer yellow sample was extracted basolaterally. Relative Fluorescence Units (RFU) of lucifer yellow were measured at 425/528 nm (excitation/emission) with an Envision plate reader.

Structures are written as SMILES. Where two headings read alike, the source gives them in different places.

`CC(=O)Nc1nc(-c2nc(C)ns2)n2c1[C@@H](C)N(C(=O)c1ccc(F)cc1)CC2` [Compound 034, (R)—N-(7-(4-fluorobenzoyl)-8-methyl-3-(3-methyl-1,2,4-thiadiazol-5-yl)-5,6,7,8-tetrahydroimidazo[1,5-a]pyrazin-1-yl)acetamide]: the half-maximal inhibitory concentration (IC50) (usually the concentration that inhibits the measured activity by half) in data set [1] was 30.4 nM. Also, in data set [2] (po), the bioavailability (as a rule, the share of a dose that reaches the circulation, judged against a reference dose that is usually intravenous) came to 83.1%. Moreover, in data set [2] (po, gavage 3 mg/kg), the Cmax is 1290 ± 133 ng/mL; the AUC (as a rule, the area under the concentration-time curve, a measure of exposure) worked out at 5580 ± 241 ng·h/mL; the half-life was 3.92 ± 0.662 h. For the same molecule, in data set [2] (intravenous injection 1 mg/kg), the AUC worked out at 2240 ± 418 ng·h/mL and the half-life is 2.95 ± 0.855 h.

With `Cc1nsc(-c2nc(-c3ccnc(F)c3)c3n2CCN(C(=O)c2ccc(F)cc2)[C@@H]3C)n1` [Compound 044, (R)-(4-fluorophenyl)(1-(2-fluoropyridin-4-yl)-8-methyl-3-(3-methyl-1,2,4-thiadiazol-5-yl)-5,6-dihydroimidazo[1,5-a]pyrazin-7 (8H)-yl)methanone], in data set [1], the half-maximal inhibitory concentration (IC50) amounted to 17 nM. Moreover, in data set [3], the apparent permeability from apical to basolateral (Papp A→B) (usually how fast a substance crosses the layer from the apical side) at 2.5 h, 2 μM came to 24 ×10⁻⁶ cm/s; the apparent permeability from basolateral to apical (Papp B→A) (in general, how fast a substance crosses the layer from the basolateral side) at 2.5 h, 2 μM stood at 15.9 ×10⁻⁶ cm/s; the efflux ratio at 2.5 h, 2 μM worked out at 0.66.

For the molecule `Cc1nsc(-c2nc(N3CCCC3=O)c3n2CCN(C(=O)c2ccc(F)cc2)[C@@H]3C)n1` [Compound 068, (R)-1-(7-(4-fluorobenzoyl)-8-methyl-3-(3-methyl-1,2,4-thiadiazol-5-yl)-5,6,7,8-tetrahydroimidazo[1,5-a]pyrazin-1-yl)pyrrolidin-2-one], the IC50 in data set [1] is 8.36 nM. Further, the bioavailability in data set [2] (po) is 73.4%. Moreover, in data set [2] (po, gavage 3 mg/kg), the Cmax came to 1030 ± 101 ng/mL, the exposure (AUC) worked out at 2890 ± 794 ng·h/mL and the half-life is 3.57 ± 1.39 h. In data set [2] (intravenous injection 1 mg/kg), the AUC was found to be 1280 ± 264 ng·h/mL and the half-life was 1.02 ± 0.16 h.

In data set [1], `Cc1nsc(-c2nc(-c3ccnc(F)c3F)c3n2CCN(C(=O)c2ccc(F)cc2)[C@@H]3C)n1` [Compound 074, (R)-(1-(2,3-difluoropyridin-4-yl)-8-methyl-3-(3-methyl-1,2,4-thiadiazol-5-yl)-5,6-dihydroimidazo[1,5-a]pyrazin-7 (8H)-yl)(4-fluorophenyl)methanone] had an IC50 of 13.6 nM. Besides, in data set [3], the Papp A→B at 2.5 h, 2 μM is 22.9 ×10⁻⁶ cm/s; the Papp B→A at 2.5 h, 2 μM was determined as 16.1 ×10⁻⁶ cm/s; the efflux ratio at 2.5 h, 2 μM was found to be 0.7.

In the case of `Cc1nsc(-c2nc(N3Cc4ccccc4C3=O)c3n2CCN(C(=O)c2ccc(F)cc2)[C@@H]3C)n1` [Compound 085, (R)-2-(7-(4-fluorobenzoyl)-8-methyl-3-(3-methyl-1,2,4-thiadiazol-5-yl)-5,6,7,8-tetrahydroimidazo[1,5-a]pyrazin-1-yl)isoindolin-1-one], the IC50 in data set [1] is 12.8 nM. For the same molecule, in data set [3], the apical-to-basolateral permeability (Papp A→B) at 2.5 h, 2 μM came to 28 ×10⁻⁶ cm/s; the Papp B→A at 2.5 h, 2 μM is 18.7 ×10⁻⁶ cm/s; the efflux ratio at 2.5 h, 2 μM was 0.67.

As to `Cc1nsc(-c2nc(N3C[C@H](F)CC3=O)c3n2CCN(C(=O)c2ccc(F)cc2)[C@@H]3C)n1` [Compound 107, (R)-4-fluoro-1-[(R)-7-(4-fluorobenzoyl)-8-methyl-3-(3-methyl-1,2,4-thiadiazol-5-yl)-5,6,7,8-tetrahydroimidazo[1,5-a]pyrazin-1-yl]pyrrolidin-2-one], the IC50 in data set [1] is 15.4 nM. Also, the bioavailability in data set [2] (po) came out at 65.6%. In data set [2] (po, gavage 3 mg/kg), the Cmax worked out at 348 ± 104 ng/mL, the area under the curve (AUC) was found to be 1860 ± 303 ng·h/mL and the half-life was 4.69 ± 1.18 h. In addition, in data set [2] (intravenous injection 1 mg/kg), the AUC was found to be 842 ± 66.3 ng·h/mL and the half-life is 0.94 ± 0.19 h.

For `Cc1nsc(-c2nc(-c3cc(F)ncc3O)c3n2CCN(C(=O)c2ccc(F)cc2)[C@@H]3C)n1` [Compound 165, (R)-(1-(2-fluoro-5-hydroxypyridin-4-yl)-8-methyl-3-(3-methyl-1,2,4-thiadiazol-5-yl)-5,6-dihydroimidazo[1,5-a]pyrazin-7 (8H)-yl)(4-fluorophenyl)methanone], in data set [3], the Papp A→B at 2.5 h, 2 μM came out at 19.2 ×10⁻⁶ cm/s; the Papp B→A at 2.5 h, 2 μM came to 12.2 ×10⁻⁶ cm/s; the efflux ratio at 2.5 h, 2 μM turned out to be 0.64.

The values are drawn from US20240228501A1, “IMIDAZOLE-CONTAINING CONDENSED RING DERIVATIVE, PREPARATION METHOD THEREFOR, AND APPLICATION THEREOF IN MEDICINE” (CHANGCHUN GENESCIENCE PHARMACEUTICAL CO., LTD., priority 2021, published 2024).
